# Assay results as given in ChEMBL document CHEMBL1909046, “DrugMatrix in vitro pharmacology data”.
# How the values were obtained:
# Melanocortin receptor 3 = Melanocortin receptor 3 (Homo sapiens, UniProt P41968); format: cell membranes, Membrane; conditions: hek293; also: in other assays of this panel Not Active means under 50% inhibition at 10 µM
# [1] = biological target: Tyrosine-protein kinase Fyn (Homo sapiens, UniProt P06241); assay: biochemical; format: cell-based, Insect cells;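 also: enzymatic inhibition of Fyn kinase activity measured with Poly(Glu:Tyr) as the phosphorylation substrate; in other assays of this panel Not Active means under 50% inhibition at 10 µM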
# Tyrosine-protein kinase Fyn, sequence (P06241 whole entry): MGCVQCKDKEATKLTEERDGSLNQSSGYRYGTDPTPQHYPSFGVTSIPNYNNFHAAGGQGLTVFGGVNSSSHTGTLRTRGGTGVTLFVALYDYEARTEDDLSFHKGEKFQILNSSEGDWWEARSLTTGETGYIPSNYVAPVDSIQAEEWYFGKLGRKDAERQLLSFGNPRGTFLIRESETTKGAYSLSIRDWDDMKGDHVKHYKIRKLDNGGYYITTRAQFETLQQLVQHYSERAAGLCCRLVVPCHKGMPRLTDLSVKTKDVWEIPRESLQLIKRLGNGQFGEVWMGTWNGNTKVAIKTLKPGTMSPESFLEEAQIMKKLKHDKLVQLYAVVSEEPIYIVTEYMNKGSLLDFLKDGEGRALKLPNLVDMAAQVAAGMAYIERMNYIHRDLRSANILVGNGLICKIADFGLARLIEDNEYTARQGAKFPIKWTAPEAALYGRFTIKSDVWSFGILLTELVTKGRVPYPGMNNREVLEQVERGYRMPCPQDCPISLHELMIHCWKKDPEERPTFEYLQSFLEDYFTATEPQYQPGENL
# Adenosine receptor A2a = Adenosine receptor A2a (Homo sapiens, UniProt P29274); assay: DRUGMATRIX: Adenosine A2A radioligand binding (ligand: […]); format: cell membranes, HEK293, Membrane; conditions: hek293; Not Active = under 50% inhibition at 10 µM
# Adenosine receptor A2a, sequence (P29274 whole entry): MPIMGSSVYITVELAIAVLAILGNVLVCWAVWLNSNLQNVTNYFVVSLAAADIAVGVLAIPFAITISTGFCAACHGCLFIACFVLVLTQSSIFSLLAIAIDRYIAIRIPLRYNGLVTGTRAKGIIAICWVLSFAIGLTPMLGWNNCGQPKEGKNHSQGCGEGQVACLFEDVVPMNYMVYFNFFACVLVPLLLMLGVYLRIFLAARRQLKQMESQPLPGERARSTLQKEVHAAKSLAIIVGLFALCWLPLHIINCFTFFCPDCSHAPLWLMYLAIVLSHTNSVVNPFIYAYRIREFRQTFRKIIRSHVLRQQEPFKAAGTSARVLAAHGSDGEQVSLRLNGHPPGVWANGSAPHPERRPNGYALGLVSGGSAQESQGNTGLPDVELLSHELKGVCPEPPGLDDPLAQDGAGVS
# Glucocorticoid receptor = biological target: T1, Glucocorticoid receptor (Homo sapiens, UniProt P04150); conditions: hela s3; also: in other assays of this panel Not Active means under 50% inhibition at 10 µM
# T1 sequence (P04150 whole entry): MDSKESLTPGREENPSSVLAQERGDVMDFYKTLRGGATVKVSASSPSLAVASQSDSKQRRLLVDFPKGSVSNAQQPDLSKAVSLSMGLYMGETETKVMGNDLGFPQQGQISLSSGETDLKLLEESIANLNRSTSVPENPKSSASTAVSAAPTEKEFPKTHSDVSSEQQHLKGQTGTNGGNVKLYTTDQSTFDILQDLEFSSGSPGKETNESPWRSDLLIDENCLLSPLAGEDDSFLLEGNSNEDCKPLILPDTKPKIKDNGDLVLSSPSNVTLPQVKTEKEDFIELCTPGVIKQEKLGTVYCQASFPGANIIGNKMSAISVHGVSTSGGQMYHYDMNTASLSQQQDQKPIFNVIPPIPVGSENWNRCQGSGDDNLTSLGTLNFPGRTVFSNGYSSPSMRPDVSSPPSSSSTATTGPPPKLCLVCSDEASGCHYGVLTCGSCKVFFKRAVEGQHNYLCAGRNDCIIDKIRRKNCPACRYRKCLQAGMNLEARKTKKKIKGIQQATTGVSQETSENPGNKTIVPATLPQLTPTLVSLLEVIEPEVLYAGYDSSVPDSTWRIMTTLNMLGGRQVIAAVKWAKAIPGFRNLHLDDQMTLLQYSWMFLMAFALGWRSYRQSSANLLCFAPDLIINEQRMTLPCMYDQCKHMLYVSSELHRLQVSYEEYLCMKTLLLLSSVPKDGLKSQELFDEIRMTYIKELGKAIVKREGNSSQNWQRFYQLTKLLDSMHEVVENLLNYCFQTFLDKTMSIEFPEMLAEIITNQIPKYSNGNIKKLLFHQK
# Melanocortin receptor 3, sequence (P41968 whole entry): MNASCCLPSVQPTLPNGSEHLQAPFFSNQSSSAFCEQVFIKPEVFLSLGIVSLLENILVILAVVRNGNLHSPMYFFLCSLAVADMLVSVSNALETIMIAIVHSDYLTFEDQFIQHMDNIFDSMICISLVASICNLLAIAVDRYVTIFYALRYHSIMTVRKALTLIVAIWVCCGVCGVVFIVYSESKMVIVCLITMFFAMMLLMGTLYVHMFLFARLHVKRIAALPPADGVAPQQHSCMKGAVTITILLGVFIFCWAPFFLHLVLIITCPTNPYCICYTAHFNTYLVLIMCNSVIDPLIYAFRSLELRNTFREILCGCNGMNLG
SMILES,IC50 (Melanocortin receptor 3),IC50 ([1]; insect cells),IC50 (Adenosine receptor A2a),IC50 (Glucocorticoid receptor),IC50 ([1]; read-out: IC50)
N[C@@H](Cc1ccc(F)cc1)C(=O)O,Not Active,Not Active,Not Active,Not Active,
CCOC(=O)[C@H](CCc1ccccc1)N[C@@H](C)C(=O)N1Cc2ccccc2C[C@H]1C(=O)O,Not Active,Not Active,Not Active,Not Active,
CCOC(=O)[C@H](CCc1ccccc1)N[C@@H](C)C(=O)N1CCC[C@H]1C(=O)O,Not Active,Not Active,Not Active,Not Active,
C=C1/C(=C\C=C2/CCC[C@]3(C)[C@@H]([C@H](C)CCCC(C)C)CC[C@@H]23)C[C@@H](O)C[C@@H]1O [ALFACALCIDOL],Not Active,Not Active,Not Active,Not Active,
CO[C@H]1[C@@H](O)[C@H](N)[C@@H](O[C@H]2O[C@H]([C@H](C)N)CC[C@H]2N)[C@H](O)[C@@H]1N(C)C(=O)CN [ASTROMICIN],Not Active,Not Active,Not Active,Not Active,
[N-]=[N+]=CC(=O)OC[C@H](N)C(=O)O [AZASERINE],Not Active,Not Active,Not Active,,
CC[C@H]1OC(=O)[C@H](C)[C@@H](O[C@H]2C[C@@](C)(OC)[C@@H](O)[C@H](C)O2)[C@H](C)[C@@H](O[C@@H]2O[C@H](C)C[C@H](N(C)C)[C@H]2O)[C@](C)(O)C[C@@H](C)CN(C)[C@H](C)[C@@H](O)[C@]1(C)O [AZITHROMYCIN],Not Active,Not Active,Not Active,,
CC(C)C[C@H]1C(=O)N2CCC[C@H]2[C@]2(O)O[C@](NC(=O)[C@@H]3C=C4c5cccc6[nH]c(Br)c(c56)C[C@H]4N(C)C3)(C(C)C)C(=O)N12 [BROMOCRIPTINE],Not Active,Not Active,Not Active,Not Active,
CS(=O)(=O)OCCCCOS(C)(=O)=O [BUSULFAN],Not Active,Not Active,Not Active,,
COc1cc(CNC(=O)CCCC/C=C/C(C)C)ccc1O [CAPSAICIN],Not Active,Not Active,Not Active,Not Active,
NC(=O)N1c2ccccc2C=Cc2ccccc21 [CARBAMAZEPINE],Not Active,Not Active,Not Active,,
CCOC(=O)n1ccn(C)c1=S [CARBIMAZOLE],Not Active,Not Active,Not Active,Not Active,
Oc1ccccc1O [CATECHOL],Not Active,,Not Active,Not Active,17.4 µM
CO[C@@]1(NC(=O)CSCC#N)C(=O)N2C(C(=O)O)=C(CSc3nnnn3C)CS[C@@H]21 [CEFMETAZOLE],Not Active,Not Active,Not Active,Not Active,
CN(C(=O)CCCOc1ccc2[nH]c(=O)ccc2c1)C1CCCCC1 [CILOSTAMIDE],Not Active,Not Active,Not Active,Not Active,
Nc1nc(Cl)nc2c1ncn2[C@H]1C[C@H](O)[C@@H](CO)O1 [CLADRIBINE],Not Active,Not Active,Not Active,Not Active,
CC[C@H]1OC(=O)[C@H](C)[C@@H](O[C@H]2C[C@@](C)(OC)[C@@H](O)[C@H](C)O2)[C@H](C)[C@@H](O[C@@H]2O[C@H](C)C[C@H](N(C)C)[C@H]2O)[C@](C)(OC)C[C@@H](C)C(=O)[C@H](C)[C@@H](O)[C@]1(C)O [CLARITHROMYCIN],Not Active,Not Active,Not Active,Not Active,
CCC[C@@H]1C[C@@H](C(=O)N[C@@H]([C@H]2O[C@H](SC)[C@H](O)[C@@H](O)[C@H]2O)[C@H](C)Cl)N(C)C1 [CLINDAMYCIN],Not Active,Not Active,Not Active,,
O=C(O)c1cc(=O)c2c(OCC(O)COc3cccc4oc(C(=O)O)cc(=O)c34)cccc2o1 [CROMOLYN],Not Active,Not Active,Not Active,,
O=P1(N(CCCl)CCCl)NCCCO1 (stereo not drawn) [CYCLOPHOSPHAMIDE ANHYDROUS],Not Active,Not Active,Not Active,Not Active,
CC(=O)O[C@]1(C(C)=O)CC[C@H]2[C@@H]3C=C(Cl)C4=CC(=O)[C@@H]5C[C@@H]5[C@]4(C)[C@H]3CC[C@@]21C [CYPROTERONE ACETATE],Not Active,Not Active,Not Active,,
Nc1nc(N)nc(NC2CC2)n1 [CYROMAZINE],Not Active,Not Active,Not Active,Not Active,

SMILES,IC50 (Melanocortin receptor 3),IC50 ([1]; insect cells),IC50 (Adenosine receptor A2a),IC50 (Glucocorticoid receptor),IC50 ([1]; read-out: IC50)
CCN[C@@H](C)Cc1cccc(C(F)(F)F)c1 [DEXFENFLURAMINE],Not Active,Not Active,Not Active,Not Active,
C[C@H](C(=O)O)c1cccc(C(=O)c2ccccc2)c1 [DEXKETOPROFEN],Not Active,Not Active,Not Active,,
CN1C(=O)CN=C(c2ccccc2)c2cc(Cl)ccc21 [DIAZEPAM],Not Active,Not Active,Not Active,Not Active,
CN1C[C@H](C(=O)N[C@]2(C)O[C@@]3(O)[C@@H]4CCCN4C(=O)[C@H](Cc4ccccc4)N3C2=O)C[C@@H]2c3cccc4[nH]cc(c34)C[C@H]21 [DIHYDROERGOTAMINE],Not Active,Not Active,Not Active,Not Active,
Cc1c(N(C)CS(=O)(=O)[O-])c(=O)n(-c2ccccc2)n1C.[Na+] [DIPYRONE SODIUM],Not Active,Not Active,Not Active,Not Active,
CC(CCc1ccc(O)cc1)NCCc1ccc(O)c(O)c1 (stereo not drawn) [DOBUTAMINE],Not Active,,Not Active,Not Active,3.98 µM
CCn1cc(C(=O)O)c(=O)c2cc(F)c(N3CCNCC3)nc21 [ENOXACIN],Not Active,Not Active,Not Active,,
CCC(=O)O[C@H]1[C@H](O[C@@H]2[C@@H](C)[C@H](O[C@H]3C[C@@](C)(OC)[C@@H](O)[C@H](C)O3)[C@@H](C)C(=O)O[C@H](CC)[C@@](C)(O)[C@H](O)[C@@H](C)C(=O)[C@H](C)C[C@@]2(C)O)O[C@H](C)C[C@@H]1N(C)C [ERYTHROMYCIN PROPIONATE],Not Active,Not Active,Not Active,Not Active,
C=C(CC)C(=O)c1ccc(OCC(=O)O)c(Cl)c1Cl [ETHACRYNIC ACID],Not Active,Not Active,Not Active,Not Active,
CCOC(=O)C1=C(C)NC(C)=C(C(=O)OC)C1c1cccc(Cl)c1Cl (stereo not drawn) [FELODIPINE],Not Active,Not Active,Not Active,Not Active,
CC(C(=O)O)c1ccc(-c2ccccc2)c(F)c1 (stereo not drawn) [FLURBIPROFEN],Not Active,Not Active,Not Active,Not Active,
NC[C@@H]1O[C@H](O[C@H]2[C@@H](O)[C@H](O[C@@H]3[C@@H](O)[C@H](N)C[C@H](N)[C@H]3O[C@H]3O[C@H](CN)[C@@H](O)[C@H](O)[C@H]3N)O[C@@H]2CO)[C@H](N)[C@@H](O)[C@@H]1O [FRAMYCETIN],Not Active,Not Active,Not Active,,
Cc1cnc(C(=O)NCCc2ccc(S(=O)(=O)NC(=O)NC3CCCCC3)cc2)cn1 [GLIPIZIDE],Not Active,Not Active,Not Active,Not Active,
Cc1c(F)c(N2CCNC(C)C2)cc2c1c(=O)c(C(=O)O)cn2C1CC1 (stereo not drawn) [GREPAFLOXACIN],Not Active,Not Active,Not Active,Not Active,
C/C=C\c1ccc(O)c(OC)c1 [ISOEUGENOL],Not Active,Not Active,Not Active,Not Active,
NC[C@H]1O[C@H](O[C@H]2[C@H](O)[C@@H](O[C@H]3O[C@H](CO)[C@@H](O)[C@H](N)[C@H]3O)[C@H](N)C[C@@H]2N)[C@H](O)[C@@H](O)[C@@H]1O [KANAMYCIN],Not Active,Not Active,Not Active,Not Active,
CC[C@H](C)C(=O)O[C@H]1C[C@@H](C)C=C2C=C[C@H](C)[C@H](CC[C@@H]3C[C@@H](O)CC(=O)O3)[C@H]21 [LOVASTATIN],Not Active,Not Active,Not Active,Not Active,
CC(C(=O)O)c1ccc(CC2CCCC2=O)cc1 (stereo not drawn) [LOXOPROFEN],Not Active,Not Active,Not Active,,
COC(=O)c1ccccc1O [METHYL SALICYLATE],Not Active,Not Active,Not Active,,
O=C(O)c1cccnc1 [NIACIN],Not Active,Not Active,Not Active,,
CC(C)(CO)C(O)C(=O)NCCCO (stereo not drawn) [PANTHENOL],Not Active,Not Active,Not Active,,
